In ChEMBL document CHEMBL2311250 (Bioorg Med Chem Lett, 2013):
pIC50: −log10 of the molar value. Values after ≈ are worked out from the molar mass of the structure shown.

Experiments:
[1] = Oral bioavailability in Sprague-Dawley rat at 5 mg/kg; type: ADME, organism-based; conditions: in vivo
[2] = biological target: T1, Tyrosine-protein kinase receptor TYRO3 (Homo sapiens, UniProt Q06418); assay: Inhibition of Sky (unknown origin) by ELISA kinase assay in presence of 60 uM ATP
T1 sequence (Q06418 whole entry): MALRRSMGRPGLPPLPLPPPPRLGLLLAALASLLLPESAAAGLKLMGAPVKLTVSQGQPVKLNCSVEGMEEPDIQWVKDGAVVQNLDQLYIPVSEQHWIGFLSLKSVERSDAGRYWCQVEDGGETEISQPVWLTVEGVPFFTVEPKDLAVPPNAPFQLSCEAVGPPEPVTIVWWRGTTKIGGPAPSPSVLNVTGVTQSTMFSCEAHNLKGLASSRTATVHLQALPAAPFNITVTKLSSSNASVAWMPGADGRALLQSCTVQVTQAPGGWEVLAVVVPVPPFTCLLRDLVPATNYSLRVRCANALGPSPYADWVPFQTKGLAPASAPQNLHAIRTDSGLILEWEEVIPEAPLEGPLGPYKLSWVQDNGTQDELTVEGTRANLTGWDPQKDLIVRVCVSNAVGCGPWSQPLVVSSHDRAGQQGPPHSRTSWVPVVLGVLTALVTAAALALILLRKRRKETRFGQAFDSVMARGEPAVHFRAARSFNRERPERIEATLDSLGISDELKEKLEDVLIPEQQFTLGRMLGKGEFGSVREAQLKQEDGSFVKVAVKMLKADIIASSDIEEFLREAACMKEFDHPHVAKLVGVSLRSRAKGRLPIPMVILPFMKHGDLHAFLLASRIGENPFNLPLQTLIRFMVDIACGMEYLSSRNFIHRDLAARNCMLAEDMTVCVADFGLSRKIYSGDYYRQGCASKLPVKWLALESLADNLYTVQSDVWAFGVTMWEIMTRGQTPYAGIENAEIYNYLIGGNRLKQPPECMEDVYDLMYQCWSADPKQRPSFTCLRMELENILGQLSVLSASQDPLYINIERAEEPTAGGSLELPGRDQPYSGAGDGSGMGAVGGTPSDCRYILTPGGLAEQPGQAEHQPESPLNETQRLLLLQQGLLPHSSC

[3] = Half life in rat liver microsomes; type: ADME, Microsome
[4] = Cmax in Sprague-Dawley rat at 1 mg/kg, iv and 5 mg/kg, po; type: ADME, organism-based; conditions: in vivo
hERG (KCNH2) = hERG (KCNH2) (Homo sapiens, UniProt Q12809); assay: Displacement of [3H]dofetilide from human ERG at 10 uM; conditions: probe [3H]dofetilide
[5] = biological target: Tyrosine-protein kinase Lck (Homo sapiens, UniProt P06239); assay: Inhibition of LCK (unknown origin) in presence of ATP
[6] = Half life in Sprague-Dawley rat at 1 mg/kg, iv and 5 mg/kg, po; type: ADME, organism-based; conditions: in vivo
[7] = biological target: RAC-alpha serine/threonine-protein kinase (Homo sapiens, UniProt P31749); assay: Inhibition of AKT1 (unknown origin) in presence of ATP
[8] = Permeability of the compound by PAMPA; type: ADME; conditions: read-out: permeability
Insulin receptor = Insulin receptor (Homo sapiens, UniProt P06213); assay: Inhibition of INSR (unknown origin) in presence of ATP
[9] = biological target: Tyrosine-protein kinase ABL1 (Homo sapiens, UniProt P00519); assay: Inhibition of ABL (unknown origin) in presence of ATP
[10] = Half life in human liver microsomes; type: ADME, Microsome
[11] = Aqueous solubility of the compound at ph 6.5; type: physicochemical
[12] = Volume of distribution at steady state in Sprague-Dawley rat at 1 mg/kg, iv and 5 mg/kg, po; type: ADME, organism-based; conditions: in vivo, read-out: Vdss
[13] = Clearance in Sprague-Dawley rat at 1 mg/kg, iv and 5 mg/kg, po; type: ADME, organism-based; conditions: in vivo
[14] = biological target: Fibroblast growth factor receptor 1 (Homo sapiens, UniProt P11362); assay: Inhibition of FGFR1 (unknown origin) in presence of ATP
[15] = biological target: Casein kinase I isoform delta (Homo sapiens, UniProt P48730); assay: Inhibition of CK1-delta (unknown origin) in presence of ATP
Platelet = assay: Inhibition of platelet aggregation (unknown origin); type: functional, cell-based
[16] = AUC in Sprague-Dawley rat at 1 mg/kg, iv and 5 mg/kg, po; type: ADME, organism-based; conditions: plasma
[17] = biological target: MAP kinase-activated protein kinase 2 (Homo sapiens, UniProt P49137); assay: Inhibition of MAPKAP-K2 (unknown origin) in presence of ATP
[18] = biological target: Dual specificity protein kinase CLK1 (Homo sapiens, UniProt P49759); assay: Inhibition of CLK1 (unknown origin) in presence of ATP
Casein kinase II = Casein kinase II (Homo sapiens, UniProt P19784+P67870+P68400); assay: Inhibition of CK2 (unknown origin) in presence of ATP; type: protein-complex assay
[19] = biological target: Serine/threonine-protein kinase Chk1 (Homo sapiens, UniProt O14757); assay: Inhibition of CHK1 (unknown origin) in presence of ATP
[20] = biological target: Tyrosine-protein kinase JAK3 (Homo sapiens, UniProt P52333); assay: Inhibition of JAK3 (unknown origin) in presence of ATP
[21] = biological target: Cyclin-dependent kinase 2/cyclin A (Homo sapiens, UniProt P24941); assay: Inhibition of CDK2/cyclin A (unknown origin) in presence of ATP; type: protein-complex assay
[22] = biological target: Inhibitor of nuclear factor kappa-B kinase subunit epsilon (Homo sapiens, UniProt Q14164); assay: Inhibition of IKKi (unknown origin) in presence of ATP
[23] = biological target: Inhibitor of nuclear factor kappa-B kinase subunit beta (Homo sapiens, UniProt O14920); assay: Inhibition of IKK-beta (unknown origin) in presence of ATP
CDK6/cyclin D3 = CDK6/cyclin D3 (Homo sapiens, UniProt Q00534); assay: Inhibition of CDK6/cyclin D3 (unknown origin) in presence of ATP; type: protein-complex assay
[24] = biological target: Serine/threonine-protein kinase 3 (Homo sapiens, UniProt Q13188); assay: Inhibition of MST2 (unknown origin) in presence of ATP
[25] = biological target: Serine/threonine-protein kinase 26 (Homo sapiens, UniProt Q9P289); assay: Inhibition of MASK (unknown origin) in presence of ATP
Ephrin type-A receptor 2 = Ephrin type-A receptor 2 (Homo sapiens, UniProt P29317); assay: Inhibition of ECK (unknown origin) in presence of ATP
[26] = biological target: Tyrosine-protein kinase BTK (Homo sapiens, UniProt Q06187); assay: Inhibition of BTK (unknown origin) in presence of ATP
[27] = biological target: Serine/threonine-protein kinase Chk2 (Homo sapiens, UniProt O96017); assay: Inhibition of CHK2 (unknown origin) in presence of ATP
[28] = biological target: Mitogen-activated protein kinase 1 (Homo sapiens, UniProt P28482); assay: Inhibition of MAPK1/ERK2 (unknown origin) in presence of ATP
[29] = biological target: Serine/threonine-protein kinase Nek2 (Homo sapiens, UniProt P51955); assay: Inhibition of NEK2 (unknown origin) in presence of ATP
[30] = biological target: Serine/threonine-protein kinase MARK1 (Homo sapiens, UniProt Q9P0L2); assay: Inhibition of MARK1 (unknown origin) in presence of ATP
[31] = biological target: Glycogen synthase kinase-3 beta (Homo sapiens, UniProt P49841); assay: Inhibition of GSK3-beta (unknown origin) in presence of ATP
Aurora kinase A = Aurora kinase A (Homo sapiens, UniProt O14965); assay: Inhibition of Aurora-A (unknown origin) in presence of ATP
[32] = biological target: Myosin light chain kinase 2, skeletal/cardiac muscle (Homo sapiens, UniProt Q9H1R3); assay: Inhibition of MYLK2 (unknown origin) in presence of ATP
[33] = biological target: Mitogen-activated protein kinase kinase kinase 9 (Homo sapiens, UniProt P80192); assay: Inhibition of MAP3K9 (unknown origin) in presence of ATP
CYP2D6 = CYP2D6 (Homo sapiens, UniProt P10635); assay: Inhibition of CYP2D6 (unknown origin) at 3 uM; type: ADME
[34] = biological target: Calcium/calmodulin-dependent protein kinase type 1 (Homo sapiens, UniProt Q14012); assay: Inhibition of CAMK1 (unknown origin) in presence of ATP
Chain of Calcium/calmodulin-dependent protein kinase type 1 (Q14012 whole entry): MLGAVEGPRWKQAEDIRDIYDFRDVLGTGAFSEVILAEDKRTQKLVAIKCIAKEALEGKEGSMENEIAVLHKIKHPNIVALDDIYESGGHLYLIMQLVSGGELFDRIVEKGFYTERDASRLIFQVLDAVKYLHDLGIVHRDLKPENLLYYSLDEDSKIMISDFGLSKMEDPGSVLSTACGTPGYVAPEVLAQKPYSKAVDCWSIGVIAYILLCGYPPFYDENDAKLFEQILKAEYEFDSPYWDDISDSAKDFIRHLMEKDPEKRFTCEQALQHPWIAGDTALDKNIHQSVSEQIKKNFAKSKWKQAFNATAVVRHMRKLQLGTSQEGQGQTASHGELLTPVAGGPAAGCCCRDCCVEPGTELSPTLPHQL

Chain of hERG (KCNH2) (Q12809 whole entry): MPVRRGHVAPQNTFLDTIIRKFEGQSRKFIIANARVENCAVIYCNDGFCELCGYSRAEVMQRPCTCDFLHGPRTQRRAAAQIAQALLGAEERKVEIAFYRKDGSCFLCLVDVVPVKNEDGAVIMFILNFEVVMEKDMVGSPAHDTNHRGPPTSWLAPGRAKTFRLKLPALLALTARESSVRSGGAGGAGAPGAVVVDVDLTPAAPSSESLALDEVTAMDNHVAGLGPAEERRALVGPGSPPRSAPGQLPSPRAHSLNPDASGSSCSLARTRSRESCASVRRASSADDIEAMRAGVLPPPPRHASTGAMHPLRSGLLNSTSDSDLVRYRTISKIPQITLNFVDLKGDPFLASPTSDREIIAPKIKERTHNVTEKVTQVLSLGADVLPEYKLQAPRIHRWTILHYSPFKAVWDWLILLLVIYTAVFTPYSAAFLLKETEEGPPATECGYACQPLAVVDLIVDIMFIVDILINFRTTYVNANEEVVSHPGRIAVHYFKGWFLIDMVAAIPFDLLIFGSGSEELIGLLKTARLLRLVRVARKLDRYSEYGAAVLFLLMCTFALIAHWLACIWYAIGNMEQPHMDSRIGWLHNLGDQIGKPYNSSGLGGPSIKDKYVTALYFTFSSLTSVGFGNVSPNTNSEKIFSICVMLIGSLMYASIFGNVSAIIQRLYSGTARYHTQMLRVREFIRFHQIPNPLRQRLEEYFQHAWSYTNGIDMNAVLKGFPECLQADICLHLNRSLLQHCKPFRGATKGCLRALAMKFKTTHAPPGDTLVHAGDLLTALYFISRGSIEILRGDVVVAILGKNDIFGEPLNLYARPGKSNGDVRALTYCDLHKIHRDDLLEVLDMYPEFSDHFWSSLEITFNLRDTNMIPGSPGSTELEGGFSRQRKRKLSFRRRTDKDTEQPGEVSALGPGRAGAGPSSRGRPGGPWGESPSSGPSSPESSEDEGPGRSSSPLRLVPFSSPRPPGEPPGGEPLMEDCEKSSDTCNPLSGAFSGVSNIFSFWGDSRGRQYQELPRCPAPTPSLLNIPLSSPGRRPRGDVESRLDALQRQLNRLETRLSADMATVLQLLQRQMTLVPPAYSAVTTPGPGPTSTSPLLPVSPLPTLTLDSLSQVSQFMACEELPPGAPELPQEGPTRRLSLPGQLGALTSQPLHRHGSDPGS
Chain of Casein kinase I isoform delta (P48730 whole entry, canonical isoform): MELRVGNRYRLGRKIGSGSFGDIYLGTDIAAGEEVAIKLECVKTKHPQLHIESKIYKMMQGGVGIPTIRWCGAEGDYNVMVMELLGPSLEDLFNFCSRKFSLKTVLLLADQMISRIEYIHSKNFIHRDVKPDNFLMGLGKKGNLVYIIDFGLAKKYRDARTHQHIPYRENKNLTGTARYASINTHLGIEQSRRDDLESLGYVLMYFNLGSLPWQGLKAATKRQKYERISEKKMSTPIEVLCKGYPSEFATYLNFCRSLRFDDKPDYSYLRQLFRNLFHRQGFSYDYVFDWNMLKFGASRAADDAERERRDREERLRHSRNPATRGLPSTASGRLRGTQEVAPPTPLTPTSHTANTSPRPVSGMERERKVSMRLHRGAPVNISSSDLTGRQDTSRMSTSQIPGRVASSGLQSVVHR
Chain of Fibroblast growth factor receptor 1 (P11362 whole entry, canonical isoform): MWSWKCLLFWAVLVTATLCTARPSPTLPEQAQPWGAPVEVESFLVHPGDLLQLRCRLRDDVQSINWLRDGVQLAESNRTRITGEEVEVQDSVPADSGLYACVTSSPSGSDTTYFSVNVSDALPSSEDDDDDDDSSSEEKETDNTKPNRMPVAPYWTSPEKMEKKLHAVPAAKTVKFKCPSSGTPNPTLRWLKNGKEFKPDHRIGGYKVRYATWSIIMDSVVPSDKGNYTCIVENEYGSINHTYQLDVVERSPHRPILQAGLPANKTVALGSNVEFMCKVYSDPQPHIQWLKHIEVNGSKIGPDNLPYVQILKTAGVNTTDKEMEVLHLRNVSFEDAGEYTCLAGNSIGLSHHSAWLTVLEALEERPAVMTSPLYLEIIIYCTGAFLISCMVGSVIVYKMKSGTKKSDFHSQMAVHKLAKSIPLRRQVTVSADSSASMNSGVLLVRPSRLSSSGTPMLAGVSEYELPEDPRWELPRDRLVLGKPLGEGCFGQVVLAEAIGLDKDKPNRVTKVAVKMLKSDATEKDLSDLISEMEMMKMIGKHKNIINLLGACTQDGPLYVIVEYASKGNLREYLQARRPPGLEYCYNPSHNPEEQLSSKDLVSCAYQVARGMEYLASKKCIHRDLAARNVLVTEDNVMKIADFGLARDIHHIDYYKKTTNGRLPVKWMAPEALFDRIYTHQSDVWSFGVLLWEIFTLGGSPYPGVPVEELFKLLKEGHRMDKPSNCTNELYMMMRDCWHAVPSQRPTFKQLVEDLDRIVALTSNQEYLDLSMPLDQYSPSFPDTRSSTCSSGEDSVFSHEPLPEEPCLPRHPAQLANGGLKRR
Chain of Tyrosine-protein kinase Lck (P06239 whole entry): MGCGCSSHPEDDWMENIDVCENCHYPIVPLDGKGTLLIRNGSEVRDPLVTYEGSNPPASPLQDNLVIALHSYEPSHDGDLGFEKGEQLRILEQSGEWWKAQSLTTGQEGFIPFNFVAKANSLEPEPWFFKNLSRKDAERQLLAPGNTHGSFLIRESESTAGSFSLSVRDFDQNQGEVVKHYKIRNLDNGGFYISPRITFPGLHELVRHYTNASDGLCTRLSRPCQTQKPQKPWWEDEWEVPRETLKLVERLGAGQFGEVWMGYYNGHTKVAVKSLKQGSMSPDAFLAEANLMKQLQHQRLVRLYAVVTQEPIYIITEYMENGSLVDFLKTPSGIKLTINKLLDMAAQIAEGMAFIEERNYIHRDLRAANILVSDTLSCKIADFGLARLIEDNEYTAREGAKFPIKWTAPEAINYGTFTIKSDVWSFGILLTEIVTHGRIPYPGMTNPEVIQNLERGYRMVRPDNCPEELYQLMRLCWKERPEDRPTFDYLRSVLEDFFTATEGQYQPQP
Chain of Tyrosine-protein kinase ABL1 (P00519 whole entry): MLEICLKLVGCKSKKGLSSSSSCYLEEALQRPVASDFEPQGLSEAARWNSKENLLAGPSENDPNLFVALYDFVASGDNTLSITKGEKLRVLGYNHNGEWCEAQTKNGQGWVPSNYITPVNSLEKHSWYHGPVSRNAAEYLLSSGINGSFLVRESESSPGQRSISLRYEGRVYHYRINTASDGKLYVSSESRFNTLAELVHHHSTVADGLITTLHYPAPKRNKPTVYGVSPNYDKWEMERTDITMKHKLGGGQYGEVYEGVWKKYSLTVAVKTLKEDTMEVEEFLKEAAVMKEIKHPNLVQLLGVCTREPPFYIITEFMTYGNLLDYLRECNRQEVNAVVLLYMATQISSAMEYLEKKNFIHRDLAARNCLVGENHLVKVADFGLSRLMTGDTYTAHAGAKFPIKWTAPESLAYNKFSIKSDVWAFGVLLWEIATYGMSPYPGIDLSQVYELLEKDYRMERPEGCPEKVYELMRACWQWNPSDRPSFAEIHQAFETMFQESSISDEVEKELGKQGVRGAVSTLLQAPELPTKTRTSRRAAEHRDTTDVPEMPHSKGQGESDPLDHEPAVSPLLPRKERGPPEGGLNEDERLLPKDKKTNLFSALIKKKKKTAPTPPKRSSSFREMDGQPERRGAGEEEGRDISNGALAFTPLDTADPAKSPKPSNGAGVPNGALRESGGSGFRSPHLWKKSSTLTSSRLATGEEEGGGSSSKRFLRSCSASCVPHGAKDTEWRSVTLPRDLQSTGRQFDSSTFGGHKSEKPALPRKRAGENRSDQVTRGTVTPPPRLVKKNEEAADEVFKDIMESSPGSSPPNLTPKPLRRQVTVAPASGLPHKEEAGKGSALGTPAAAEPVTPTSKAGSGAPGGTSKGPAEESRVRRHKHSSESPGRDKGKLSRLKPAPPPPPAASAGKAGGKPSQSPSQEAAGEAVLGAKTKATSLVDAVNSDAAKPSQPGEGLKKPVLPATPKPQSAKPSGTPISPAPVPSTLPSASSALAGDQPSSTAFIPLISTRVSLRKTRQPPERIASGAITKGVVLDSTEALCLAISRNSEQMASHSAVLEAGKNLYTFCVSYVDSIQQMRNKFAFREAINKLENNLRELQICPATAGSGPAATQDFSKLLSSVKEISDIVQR
Chain of RAC-alpha serine/threonine-protein kinase (P31749 whole entry): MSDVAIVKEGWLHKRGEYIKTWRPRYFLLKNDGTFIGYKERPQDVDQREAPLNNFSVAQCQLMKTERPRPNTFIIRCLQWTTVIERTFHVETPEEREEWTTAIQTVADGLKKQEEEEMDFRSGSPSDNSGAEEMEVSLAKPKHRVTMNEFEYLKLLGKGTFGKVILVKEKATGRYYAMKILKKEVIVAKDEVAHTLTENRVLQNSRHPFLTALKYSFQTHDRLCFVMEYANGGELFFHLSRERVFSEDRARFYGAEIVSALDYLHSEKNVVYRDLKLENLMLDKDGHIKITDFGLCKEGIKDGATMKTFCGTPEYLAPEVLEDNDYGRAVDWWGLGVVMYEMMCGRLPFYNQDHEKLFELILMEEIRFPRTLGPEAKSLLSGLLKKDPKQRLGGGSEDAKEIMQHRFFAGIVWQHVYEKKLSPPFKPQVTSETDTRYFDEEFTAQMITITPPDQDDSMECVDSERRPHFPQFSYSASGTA

Work on `CN1CCC(NC(=O)c2cnc(NCc3cc(Cl)ccc3Cl)nc2NC2CCCC2)CC1` yielded a bioavailability [1] of 32%, a pIC50 [2] of 6.57 and a half-life [3] of 60 min. The Cmax [4] was 35 ng/mL, the inhibition at 10 µM (hERG (KCNH2)) was 47% and the pIC50 [5] was 5.87. It also gave a half-life [6] of 480 min, a pIC50 [7] of 4.73 and a Papp [8] of 0.02 ×10⁻⁶ cm/s. For the same molecule, the pIC50 (Insulin receptor) was 4.73, the pIC50 [9] was 5.50 and the half-life [10] was 14 min. The solubility [11] was 7.8 µM (≈ 3.72 µg/mL), the Vd [12] was 25 L/kg and the clearance [13] was 40 mL/min/kg. For the same molecule, the pIC50 [14] was 4.90, the pIC50 [15] was 5.62 and the pIC50 (Platelet) was 5.14. The AUC [16] was 680 ng·h/mL.
`Cc1cc(-c2cnc(Nc3cc(Cl)cc(Cl)c3)nc2NC2CCC(N(C)C)CC2)on1` (configuration not stated) showed a pIC50 [17] of 4.73, a pIC50 [18] of 5.79 and a pIC50 (Casein kinase II) of 5.12. For the same molecule, the half-life [3] was 6 min, the inhibition at 10 µM (hERG (KCNH2)) was 0.35% and the pIC50 [19] was 5.86. The pIC50 [20] was 5.28, the pIC50 [5] was 6.66 and the pIC50 [21] was 5.94. For the same molecule, the pIC50 [22] was 4.52, the pIC50 [7] was 5.51 and the Papp [8] was 0.03 ×10⁻⁶ cm/s. The pIC50 [9] was 6.09, the pIC50 [23] was 4.52 and the pIC50 (CDK6/cyclin D3) was 4.52. It also gave a pIC50 [24] of 6.33, a pIC50 [25] of 5.42 and a pIC50 (Ephrin type-A receptor 2) of 5.61. The pIC50 [26] was 6.02, the pIC50 [27] was 5.10 and the half-life [10] was 28 min. The pIC50 [28] was 4.52, the solubility [11] was 2.3 µM (≈ 1.06 µg/mL) and the pIC50 [29] was 5.60. It also gave a pIC50 [30] of 5.83, a pIC50 [31] of 5.11 and a pIC50 (Aurora kinase A) of 5.81. The pIC50 [32] was 5.31, the pIC50 [33] was 6.80 and the inhibition at 3 µM (CYP2D6) was 69%. For the same molecule, the pIC50 [34] was 5.41, the pIC50 [14] was 5.77 and the pIC50 [15] was 6.96.
